# Experimental data: ChEMBL document CHEMBL1201862, “PubChem BioAssay data set” (2004)
# Active and inactive are the calls of the source.
# Legend:
# cells [1] = format: functional, cell-based
# [2] = biological target: T1, Nuclear receptor subfamily 0 group B member 1 (Homo sapiens, UniProt P51843); format: functional, cell-based;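 also: HEK293T cells transfected with SF-1 and DAX-1 plus StAR promoter luciferase reporter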
# T1 sequence (P51843 whole entry): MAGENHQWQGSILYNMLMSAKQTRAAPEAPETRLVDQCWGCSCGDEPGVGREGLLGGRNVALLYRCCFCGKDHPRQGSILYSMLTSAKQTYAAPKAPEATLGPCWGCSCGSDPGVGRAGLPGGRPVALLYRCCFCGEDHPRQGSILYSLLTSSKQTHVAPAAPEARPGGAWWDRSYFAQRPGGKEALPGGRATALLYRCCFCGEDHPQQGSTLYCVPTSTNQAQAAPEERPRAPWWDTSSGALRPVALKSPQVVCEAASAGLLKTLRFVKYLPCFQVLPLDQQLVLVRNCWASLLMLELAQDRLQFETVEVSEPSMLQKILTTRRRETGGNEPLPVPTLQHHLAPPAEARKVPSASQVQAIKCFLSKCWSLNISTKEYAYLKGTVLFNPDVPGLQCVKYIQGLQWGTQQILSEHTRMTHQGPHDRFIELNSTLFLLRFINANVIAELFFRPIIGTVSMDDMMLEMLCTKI
# [3] = biological target: FAD-linked sulfhydryl oxidase ALR (Homo sapiens, UniProt P55789); test: inhibitors of human ALR sulfhydryl oxidase, dose response, biochemical, H2O2 detection, luminescence, cherry-pick (AID 493248)
# FAD-linked sulfhydryl oxidase ALR, sequence (P55789 whole entry): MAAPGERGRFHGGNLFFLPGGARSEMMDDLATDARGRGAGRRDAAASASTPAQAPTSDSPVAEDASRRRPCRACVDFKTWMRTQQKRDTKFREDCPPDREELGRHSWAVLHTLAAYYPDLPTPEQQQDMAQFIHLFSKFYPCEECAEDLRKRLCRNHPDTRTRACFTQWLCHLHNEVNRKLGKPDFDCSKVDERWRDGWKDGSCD
# Large T antigen = Large T antigen (Simian virus 40, UniProt P03070); format: functional, Betapolyomavirus macacae;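 also: Confirmatory-stage PubChem screen for compounds that inhibit SV40 T antigen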
# Large T antigen, sequence (P03070 whole entry): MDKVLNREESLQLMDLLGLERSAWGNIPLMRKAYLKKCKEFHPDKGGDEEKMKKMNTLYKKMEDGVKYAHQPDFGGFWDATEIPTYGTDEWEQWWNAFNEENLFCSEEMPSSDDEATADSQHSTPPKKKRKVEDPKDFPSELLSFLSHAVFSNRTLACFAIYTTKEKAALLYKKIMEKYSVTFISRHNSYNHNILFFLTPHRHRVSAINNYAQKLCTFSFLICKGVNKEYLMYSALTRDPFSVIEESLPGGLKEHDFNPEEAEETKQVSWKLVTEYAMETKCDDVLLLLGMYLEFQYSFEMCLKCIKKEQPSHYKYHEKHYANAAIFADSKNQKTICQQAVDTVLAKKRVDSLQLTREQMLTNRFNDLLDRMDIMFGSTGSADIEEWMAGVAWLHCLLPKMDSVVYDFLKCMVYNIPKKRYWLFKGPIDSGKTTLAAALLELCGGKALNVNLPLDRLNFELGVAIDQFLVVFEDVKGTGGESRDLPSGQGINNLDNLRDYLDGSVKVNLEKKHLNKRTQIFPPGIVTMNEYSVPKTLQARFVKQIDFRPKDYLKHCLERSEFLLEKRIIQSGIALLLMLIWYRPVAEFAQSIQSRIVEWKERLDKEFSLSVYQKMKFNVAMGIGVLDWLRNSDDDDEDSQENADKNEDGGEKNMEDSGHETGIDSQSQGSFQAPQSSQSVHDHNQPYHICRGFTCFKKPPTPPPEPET
# [4] = biological target: Histone-lysine N-methyltransferase NSD2 (Homo sapiens, UniProt O96028); format: biochemical
# Histone-lysine N-methyltransferase NSD2, sequence (O96028 whole entry): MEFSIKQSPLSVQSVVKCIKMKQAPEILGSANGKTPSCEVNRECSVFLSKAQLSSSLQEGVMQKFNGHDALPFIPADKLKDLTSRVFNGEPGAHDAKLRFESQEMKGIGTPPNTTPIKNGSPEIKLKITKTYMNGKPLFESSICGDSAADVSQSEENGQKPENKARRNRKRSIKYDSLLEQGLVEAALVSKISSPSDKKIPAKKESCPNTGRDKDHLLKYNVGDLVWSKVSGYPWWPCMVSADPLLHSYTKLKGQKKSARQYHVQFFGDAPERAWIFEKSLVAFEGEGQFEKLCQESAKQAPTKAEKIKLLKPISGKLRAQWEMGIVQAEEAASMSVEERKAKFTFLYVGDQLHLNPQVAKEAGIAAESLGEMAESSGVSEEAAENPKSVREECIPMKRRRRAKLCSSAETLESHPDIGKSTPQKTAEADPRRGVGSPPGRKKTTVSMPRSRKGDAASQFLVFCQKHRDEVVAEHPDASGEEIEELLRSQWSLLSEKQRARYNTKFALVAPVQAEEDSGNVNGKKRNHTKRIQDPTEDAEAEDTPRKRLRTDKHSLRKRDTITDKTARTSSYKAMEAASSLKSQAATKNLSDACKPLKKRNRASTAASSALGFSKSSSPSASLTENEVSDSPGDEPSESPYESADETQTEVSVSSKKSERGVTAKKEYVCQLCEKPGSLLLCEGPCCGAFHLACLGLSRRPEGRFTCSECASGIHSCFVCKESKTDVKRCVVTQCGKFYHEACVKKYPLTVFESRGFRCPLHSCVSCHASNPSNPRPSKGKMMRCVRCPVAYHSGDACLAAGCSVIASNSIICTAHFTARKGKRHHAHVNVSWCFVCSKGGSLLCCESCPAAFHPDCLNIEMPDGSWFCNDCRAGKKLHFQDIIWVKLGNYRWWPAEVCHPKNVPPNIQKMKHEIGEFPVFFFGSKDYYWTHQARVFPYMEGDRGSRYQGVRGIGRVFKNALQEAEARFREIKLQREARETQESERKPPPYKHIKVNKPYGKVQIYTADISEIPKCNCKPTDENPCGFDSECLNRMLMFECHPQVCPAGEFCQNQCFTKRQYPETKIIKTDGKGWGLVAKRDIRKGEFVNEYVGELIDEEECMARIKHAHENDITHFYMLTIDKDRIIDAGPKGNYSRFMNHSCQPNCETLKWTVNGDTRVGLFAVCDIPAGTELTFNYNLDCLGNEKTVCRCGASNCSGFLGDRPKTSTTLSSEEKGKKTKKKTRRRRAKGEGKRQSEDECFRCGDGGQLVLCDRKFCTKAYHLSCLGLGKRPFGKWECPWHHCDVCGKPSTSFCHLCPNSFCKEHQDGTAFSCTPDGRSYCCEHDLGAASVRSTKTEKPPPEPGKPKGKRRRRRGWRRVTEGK
# [5] = biological target: T2, DNA repair protein RAD52 homolog (Homo sapiens, UniProt P43351); format: functional, biochemical
# T2 sequence (P43351 whole entry): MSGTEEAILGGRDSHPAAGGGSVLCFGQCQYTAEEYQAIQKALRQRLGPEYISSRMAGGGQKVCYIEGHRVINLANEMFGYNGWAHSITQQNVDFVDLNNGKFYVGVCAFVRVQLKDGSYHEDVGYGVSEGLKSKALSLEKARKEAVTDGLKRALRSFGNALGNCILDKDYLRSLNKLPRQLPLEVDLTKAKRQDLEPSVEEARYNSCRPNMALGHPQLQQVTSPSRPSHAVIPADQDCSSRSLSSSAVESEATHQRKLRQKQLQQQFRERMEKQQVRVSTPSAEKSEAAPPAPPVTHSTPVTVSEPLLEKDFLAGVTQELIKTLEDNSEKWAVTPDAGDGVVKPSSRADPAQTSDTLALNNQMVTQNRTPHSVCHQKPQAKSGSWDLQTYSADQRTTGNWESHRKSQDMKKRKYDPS
# [6] = NIH/3T3 fibroblast cytotoxicity, dose response, cytotoxicity control, cell-based, plate reader, dry powder, set 2 (AID 652280); format: functional; settings: NIH3T3
# [7] = T. cruzi growth inhibition in host cells, dose response, cell-based, plate reader, dry powder, set 2 (AID 652275); format: functional
# [8] = LMP1-driven NF-kB reporter inhibition, dose response, cell-based, luciferase reporter, luminescence, dry powder, set 2 (AID 624376); format: functional
# [9] = HEK293T cytotoxicity, dose response, cytotoxicity control for miR-122 modulator project, cell-based, activator set, cherry-pick (AID 720690); format: functional;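 also: HEK293T human cells scored for general mammalian cytotoxicity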
# [10] = HEK293T cytotoxicity, dose response, cytotoxicity control for miR-122 modulator project, cell-based, inhibitor set, cherry-pick, set 2 (AID 720697); format: functional
# [11] = biological target: Long-chain-fatty-acid--AMP ligase FadD28 (Mycobacterium tuberculosis, UniProt P9WQ59); test: Fluorescence polarization aasay to screen for inhibitors that compete for the binding of FadD28 to a bisubstrate Measured in Biochemical System Using Plate Reader - 2147-01_Inhibitor_Dose_CherryPick_Activity.; format: functional, Mycobacterium tuberculosis H37Rv
# Long-chain-fatty-acid--AMP ligase FadD28, sequence (P9WQ59 whole entry): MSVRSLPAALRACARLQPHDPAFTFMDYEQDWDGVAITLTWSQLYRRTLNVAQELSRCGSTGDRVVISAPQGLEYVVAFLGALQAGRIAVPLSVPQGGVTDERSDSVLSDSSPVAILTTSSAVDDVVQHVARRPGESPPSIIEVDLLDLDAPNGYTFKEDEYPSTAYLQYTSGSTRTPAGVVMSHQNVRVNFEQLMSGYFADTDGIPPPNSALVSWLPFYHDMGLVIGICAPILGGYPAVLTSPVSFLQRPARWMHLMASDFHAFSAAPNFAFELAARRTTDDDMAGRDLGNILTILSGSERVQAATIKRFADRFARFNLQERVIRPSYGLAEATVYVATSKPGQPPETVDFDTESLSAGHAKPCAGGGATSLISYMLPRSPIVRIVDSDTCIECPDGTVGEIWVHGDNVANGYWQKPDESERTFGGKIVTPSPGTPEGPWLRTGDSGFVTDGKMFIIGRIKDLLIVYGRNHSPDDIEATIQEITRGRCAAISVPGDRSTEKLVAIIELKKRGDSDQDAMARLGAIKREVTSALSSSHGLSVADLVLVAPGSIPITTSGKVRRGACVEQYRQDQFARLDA
# [12] = YAP1 pathway inhibition via CTGF transcript levels, dose response, cell-based, DLD1 colon cancer, RT-qPCR, cherry-pick (AID 1053122); format: functional; settings: Cancer cell lines
# [13] = Luminescence Cell-Based Dose Response HTS to Identify Inhibitors of 5'UTR Stem-Loop Driven Prion Protein mRNA Translation in H4 Neuroglioblastoma Cells. [Related pubchem assays: 1827 (Project Summary), 1813 (Primary HTS)]; format: functional
# [14] = inhibitors of firefly luciferase expression or activity, dose response, H4 neuroglioma cells, luminescence (AID 1990); format: functional, cell-based
# [15] = HEp-2 cell cytotoxicity, dose response, cytotoxicity control for RSV inhibitor project, HTS (AID 2410); format: functional; settings: human respiratory syncytial virus
# cells [16] = test: cells
# [17] = inhibitors of SNCA 5'UTR-driven reporter translation, confirmation, H4 neuroglioma cells, luminescence (AID 1988); format: functional, cell-based
# Vero = test: cells; format: functional, cell-based; settings: Chlorocebus sabaeus
structure (smiles),measurement,setting,value
Cc1cc(C(=O)NCCc2ccc(Cl)cc2)c(C)o1,IC50,cells [1],> 67.5 µM (inactive)
same,IC50,[2],> 67.5 µM (inactive)
CCN1CCN(c2ccc(N)cc2C)CC1,AC50,[3],1.73 µM (active)
same,IC50,Large T antigen,6.6 µM (active)
same,AC50,[4],> 20 µM (inactive)
same,AC50,[5],0.278 µM (active)
OC[C@H]1[C@H](c2ccc(-c3cccc(F)c3)cc2)[C@@H]2CN(CCC(F)(F)F)CCCCN12,AC50,[6],3.34 µM (active)
same,AC50,[7],0.53 µM (active)
COc1ccc(NC(=O)N(C)C[C@@H]2Oc3cc(C#CCC(C)C)ccc3S(=O)(=O)N([C@@H](C)CO)C[C@@H]2C)cc1,AbsAC35,[8],43.42 µM
same,AC50,[9],26.8 µM (active)
C[C@@H]1CN([C@@H](C)CO)C(=O)Cc2cc(NS(=O)(=O)c3ccc(Cl)cc3)ccc2O[C@H]1CN(C)Cc1ccc(C(F)(F)F)cc1,AC50,[10],< 0.195 µM (active)
same,AC50,[9],33.8 µM (active)
CCOC(=O)c1ccc(NC(=S)N(CCN(C)C)Cc2cccs2)cc1,AC50,[11],> 100 µM (inactive)
C[C@@H]1CN([C@H](C)CO)C(=O)c2ccccc2-c2ccccc2CO[C@@H]1CN(C)Cc1cccc2c1OCCCO2,AC50,[12],12.3 µM (active)
CCN1CCN(c2ccc(N)cc2)CC1,AC50,[3],4.5 µM (active)
same,AC50,[4],> 20 µM (inactive)
same,AC50,[5],1.47 µM (active)
Nc1cnn(C2OC(CO)C(O)C2O)c(=O)n1 (stereo not given),IC50,cells [1],> 67.5 µM (inactive)
same,EC50,[13],> 120 µM (not active)
same,EC50,[14],14.3 µM (active)
same,CC50,[15],5.98 µM (active)
same,IC50,cells [16],1.91 µM (active)
same,EC50,[17],14.7 µM (active)
same,IC50,Vero,11.8 µM (active)
same,IC50,[2],> 22.5 µM (inactive)
